Laboratory results as given in patent publication US5177240A, “o-Phosphono(alkyl)-N-sulfonyl-phenyl-alanine derivatives useful as intermediates for preparation of phosphono-hydroisoquinolines” (G. D. Searle & Co., priority 1990, dated 1993).

Assays:
[1] = molecular target: NMDA receptor; assay: NMDA receptor binding assay (NMDA-specific L-[3H]-glutamate binding, synaptic plasma membranes); conditions: 12.5 nM L-[3H]-glutamate, pH 7.4, 0-4° C., 10 min
Description: Synaptic plasma membranes (SPM) were prepared as previously described Monahan, J. B. and Michel, J., "Identification and Characterization of an N-methyl-D-aspartate-specific L-[^3 H]-glutamate Recognition Site in Synaptic Plasma Membranes, J. Neurochem., 48, 1699-1708 (1987)]. The SPM were stored at a concentration of 10-15 mg/ml in 0.32M sucrose, 0.5 mM EDTA, 1 mM MgSO4, 5 mM Tris/sulfate, pH 7.4, under liquid nitrogen. The identity and purity of the subcellular fractions were confirmed by both electron microscopy and marker enzymes. Protein concentrations were determined by using a modification of the method of Lowry [Ohnishi, S. T. and Barr, J. K., "A Simplified Method of Quantitating Proteins Using the Biuret and Phenol Reagents", Anal. Biochem., 86, 193-197 (1978)]. The SPM were treated identically for the [^3 H]AMPA (QUIS), [^3 H]kainate and sodium-dependent L-[^3 H]-glumatate binding assays. The SPM were thawed at room temperature, diluted twenty-fold with 50 mM Tris/acetate, pH 7.4, incubated at 37° C. for 30 minutes, and centrifuged at 100,000 g for 15 minutes. The dilution, incubation and centrifugation were repeated a total of three times. Prior to use in the NMDA-specific L-[^3 H]-glutamate binding assay, the SPM were thawed, diluted twenty fold with 50 mM Tris/acetate (pH 7.4 containing 0.04% (v/v) Triton X-100), incubated for 30 minutes at 37° C. and centrifuged as described above. The Triton X-100 treated membranes were washed with 50 mM Tris/acetate (pH 7.4) and centrifuged at 100,000 g for 15 minutes a total of four times. The basic procedure for the receptor subclass binding assays was similar. This general method involved adding the radioligand (12.5 nM L-[^3 H]-glutamate; 0.5 nM [^3 H]kainate or 10nM [^3 H]AMPA) to the appropriate concentration of the test compound and initiating the assay by the addition of ice cold synaptic plasma membranes (0.2-0.45 mg). The binding assays were performed in 1.5 mL centrifuge tubes with the total volume adjusted to 1.0 mL. Additions of test compounds were made in 50 mM Tris/acetate (pH 7.4) and incubations were carried out at 0°-4° C. The incubation time for each of the NMDA and the AMPA binding assays was 10 minutes, for the kainate binding assay 60 minutes and for the sodium-dependent glutamate binding assay 15 minutes. The AMPA binding assay contained 100 mM KSCN and the sodium-dependent glutamate binding assay contained 150 mM sodium acetate in addition to the previously described reagents. To terminate the incubation, the samples were centrifuged for 15 minutes at 12,000 g and 4° C. in a Beckman Microfuge 12. The supernatant was aspirated and the pelleted membranes dissolved in Beckman BTS-450 tissue solubilizer for a minimum of 6 hours at room temperature. Beckman MP scintillation cocktail containing 7 mL/L acetic acid was then added and the samples counted on a Beckman LS 5800 or 3801 liquid scintillation counter with automatic corrections for quenching and counting efficiency. Nonspecific binding was defined as the residual binding in the presence of either excess L-glutamate (0.1-0.4 mM), kainate (0.01 mM), or NMDA (0.5 mM), and was 15-25% of the total binding in the NMDA binding assay, 19-27% in the AMPA binding assay, 20-30% in the kainate binding assay and 10-15% in the sodium-dependent binding assay. Radioligand binding to the synaptic plasma membranes was analyzed using Scatchard and Hill transformations and the Ki values of the compounds determined using logit-log transformations. Calculations and regression analysis were performed using templates developed for Lotus 1, 2, 3 as previously described [Pullan, L. M. "Automated Radioligand Receptor Binding Analysis with Templates for Lotus", Computer Appln. Biosci., 3 131 (1987)]. Binding results are reported in Table II for example compounds of the invention. Included in Table II are binding data for D,L-AP7[D,L-2-amino-7-phosphonoheptanoic acid].

[2] = molecular target: [3H]MK-801 receptor; assay: MK-801 Modulation Assay ([3H]MK-801 binding, synaptic plasma membranes from rat forebrain); conditions: 2.0 nM [3H]MK-801, pH 7.4, 120 min, 25° C.; decrease in specific basal binding; read-out: IC50, inhibition of [3H]MK-801 binding
Description: [^3 H]MK-801 binding was performed using Triton X-100 washed synaptic plasma membranes (SPM) prepared from rat forebrain (30-45 day old, male Sprague-Dawley; Sasco, St. Charles, MO) as described previously [J. W. Thomas, W. F. Hood, J. B. Monahan, P. C. Contreras and T. L. O'Donohue, Brain Res., 442, 396-398 (1988)]. The assay was initiated by the addition of SPM (0.20-0.30 mg) to an incubation containing 2.0 nM [^3 H]MK-801 (15 Ci/mmole; New England Nuclear, Boston, MA) and various concentrations of the appropriate test compound in a total volume of 0.5 ml (all additions were made in 50mM Tris/acetate buffer, pH 7.4) and continued for 120 min at 25° C. The samples were then filtered through glass fiber filters (Schleicher and Schuell #32) which were pretreated with 0.05% (v/v) polyethylenimine. The filters were washed and the radioactivity quantitated by liquid scintillation spectrometry. Inhibition of [^3 H]MK-801 binding was measured as a decrease in specific basal binding (basal binding=2583 ±381 DPM) with nonspecific binding as the residual binding in the presence of 60 μM MK-801 (562 ±30 DPM).

[3] = test system: [3H]glycine binding; assay: Glycine Binding Assay ([3H]glycine, synaptic plasma membranes from rat forebrain); conditions: 10 nM [3H]glycine, pH 7.4
Description: Synaptic plasma membranes (SPM) were prepared from rat forebrain and stored as previously described [J. B. Monahan and J. Michel, J. Neurochem., 48, 1699-1708 (1987)]. Frozen membranes were thawed and diluted 1:20 with 0.04% Triton X-100 in 50 mM Tris/acetate (pH 7.4). Following incubation at 37° C. for 30 min., the SPM were collected by centrifugation at 95,000×g for 15 min. The pellet was resuspended in 50 mM Tris/acetate (pH 7.4, Triton-free) and hand-homogenized five times. The membranes were again centrifuged as above. The pellet was washed two additional times with 50 mM Tris/acetate (without homogenization) and centrifuged. The final pellet was resuspended with homogenization in 50 mM Tris/acetate. In the general receptor binding assay procedure, 10 nM [^3 H]glycine was added to the appropriate concentration of the test compounds and the assay initiated by the addition of 0.2-0.4 mg of ice cold SPM. […] Beckman MP scintillation cocktail (5 ml) containing 7 ml/liter acetic acid was then added and the samples counted on a Beckman LS 5800 liquid scintillation counter with automatic corrections for quenching and counting efficiency. […] The binding of [^3 H]glycine to the SPM was analyzed using Scatchard and Hill transformations and the Ki for other compounds was determined using logit-log analysis. […]

[4] = molecular target: Quis (quisqualate) receptor; assay: Quisqualate (QUIS) receptor binding assay ([3H]AMPA, synaptic plasma membranes); conditions: 10 nM [3H]AMPA, 100 mM KSCN, pH 7.4, 0-4° C., 10 min; read-out: NMDA receptor binding Ki, Quis
Description: (§1) Synaptic plasma membranes (SPM) were prepared as previously described Monahan, J. B. and Michel, J., "Identification and Characterization of an N-methyl-D-aspartate-specific L-[^3 H]-glutamate Recognition Site in Synaptic Plasma Membranes, J. Neurochem., 48, 1699-1708 (1987)]. The SPM were stored at a concentration of 10-15 mg/ml in 0.32M sucrose, 0.5 mM EDTA, 1 mM MgSO4, 5 mM Tris/sulfate, pH 7.4, under liquid nitrogen. The identity and purity of the subcellular fractions were confirmed by both electron microscopy and marker enzymes. Protein concentrations were determined by using a modification of the method of Lowry [Ohnishi, S. T. and Barr, J. K., "A Simplified Method of Quantitating Proteins Using the Biuret and Phenol Reagents", Anal. Biochem., 86, 193-197 (1978)]. The SPM were treated identically for the [^3 H]AMPA (QUIS), [^3 H]kainate and sodium-dependent L-[^3 H]-glumatate binding assays. The SPM were thawed at room temperature, diluted twenty-fold with 50 mM Tris/acetate, pH 7.4, incubated at 37° C. for 30 minutes, and centrifuged at 100,000 g for 15 minutes. The dilution, incubation and centrifugation were repeated a total of three times. Prior to use in the NMDA-specific L-[^3 H]-glutamate binding assay, the SPM were thawed, diluted twenty fold with 50 mM Tris/acetate (pH 7.4 containing 0.04% (v/v) Triton X-100), incubated for 30 minutes at 37° C. and centrifuged as described above. The Triton X-100 treated membranes were washed with 50 mM Tris/acetate (pH 7.4) and centrifuged at 100,000 g for 15 minutes a total of four times. The basic procedure for the receptor subclass binding assays was similar. […] Beckman MP scintillation cocktail containing 7 mL/L acetic acid was then added and the samples counted on a Beckman LS 5800 or 3801 liquid scintillation counter with automatic corrections for quenching and counting efficiency. […] Radioligand binding to the synaptic plasma membranes was analyzed using Scatchard and Hill transformations and the Ki values of the compounds determined using logit-log transformations. […]

[5] = molecular target: KA (kainate) receptor; assay: Kainate (KA) receptor binding assay ([3H]kainate, synaptic plasma membranes); conditions: 0.5 nM [3H]kainate, pH 7.4, 0-4° C., 60 min
Description: as §1, with “assays.” for “assays. The SPM were thawed at room temperature, diluted twenty-fold with 50 mM Tris/acetate, pH 7.4, incubated at 37° C. for 30 minutes, and centrifuged at 100,000 g for 15 minutes. The dilution, incubation and centrifugation were repeated a total of three times. Prior to use in the NMDA-specific L-[^3 H]-glutamate binding assay, the SPM were thawed, diluted twenty fold with 50 mM Tris/acetate (pH 7.4 containing 0.04% (v/v) Triton X-100), incubated for 30 minutes at 37° C. and centrifuged as described above. The Triton X-100 treated membranes were washed with 50 mM Tris/acetate (pH 7.4) and centrifuged at 100,000 g for 15 minutes a total of four times. The basic procedure for the receptor subclass binding assays was similar.”

[6] = test system: TCP (1-[1-(2-thienyl)-cyclohexyl]piperidine) binding; assay: TCP Modulation Assay ([3H]TCP binding, rat brain synaptic membranes); conditions: 2 nM tritiated TCP, 0.05 mM L-glutamate, pH 7.4, 25° C., 60 min
Description: The effect on the TCP (1-[1-(2-thienyl)-cyclohexyl]piperidine) binding was measured in rat brain synaptic membranes (SPM) prepared as previously described [J. B. Monahan & J. Michel; J. Neurochem. 48:1699-1708 (1987)]. Prior to their use in the binding assay, frozen SPM were thawed, diluted twenty fold with 50 mM Tris/acetate (pH 7.4 containing 0.04% (v/v) Triton X-100), incubated for 30 min. at 37° C. and centrifuged at 95,000×g for 15 min. The Triton X-100 treated SPM were washed with 5 mM Tris/HCl, pH 7.4 and centrifuged a total of six times. The compound of Example II was incubated at different concentrations with SPM (0.2-0.4 mg protein) and 2 nM tritiated TCP, in a total volume of 0.5 ml of 5 mM Tris/HCl buffer pH 7.4 at 25° C. for 60 min. The samples were filtered through glass fiber filters (Schleicher & Schuell #32) which have been pretreated with 0.05% (v/v) polyethylenimine, washed 4 times with 2 ml of ice-cold 5 mM Tris/HCl buffer, and then counted on a Beckman LS 5800 liquid scintillation counter with automatic corrections for quenching and counting efficiency. Inhibition of TCP binding was measured as a decrease in the binding in the presence of 0.05 mM L-glutamate. Non-specific binding was defined as the residual binding in the presence of 60 […].

Row | Compound | Ki [1] | further results
1 | O=C(O)C1Cc2c(cccc2P(=O)(O)O)CN1 (single isomer, unassigned; (+)) [Ex. 13, (+)-3-carboxy-5-phosphono-1,2,3,4-tetrahydroisoquinoline] | 0.9 µM | 
2 | CCOC(=O)C1Cc2c(cccc2P(=O)(O)O)CN1 (centres unmarked) [Ex. 15, 5-phosphono-3-(ethoxycarbonyl)-1,2,3,4-tetrahydroisoquinoline] | > 100 µM | 
3 | O=C(O)C1Cc2c(cccc2P(=O)(O)O)CN1 (single isomer, unassigned) [Ex. 14] | 3.1 µM | 
4 | O=C(O)C1CC2C(CCCC2P(=O)(O)O)CN1 (centres unmarked) [Ex. 5] | 1.6 µM | IC50 [2]: 1.38 µM
5 | Cl.O=C(O)C1Cc2c(cccc2P(=O)(O)O)CN1 (centres unmarked) [Ex. 2, 3-carboxy-5-phosphono-1,2,3,4-tetrahydroisoquinoline hydrochloride] | 1.6 µM | IC50 [2]: 0.48 µM; maximum inhibition of [3H]-glycine binding [3]: approximately 40%; IC20 ([3]; calculated, based on maximum inhibition of approximately 40%): 1.9 µM; Ki [4]: > 300 µM; Kainate receptor binding Ki [5]: ~ 300 μM; inhibition of TCP binding ([6]; at 5 μM): 64%; inhibition of TCP binding ([6]; at 50 μM): 91%
6 | O=C(O)C1CC2=C(CC=CC2P(=O)(O)O)CN1 (centres unmarked) [Ex. 3, 3-carboxy-5-phosphono-1,2,3,4,5,8-hexahydroisoquinoline] | 3 µM | 
7 | N[C@H](CCCCCP(=O)(O)O)C(=O)O [D-AP7] | 4 µM | Ki [4]: > 300 µM
8 | NC(CCCCCP(=O)(O)O)C(=O)O (racemic) [D,L-AP7, D,L-2-amino-7-phosphonoheptanoic acid] | 5.4 µM | Ki [4]: > 300 µM
9 | O=C(O)C1CC2C(CCCC2P(=O)(O)O)CN1 (centres unmarked) [Ex. 7] | 1.3 µM | 
10 | O=C(O)C1CC2C(CCCC2P(=O)(O)O)CN1 (centres unmarked) [Ex. 6] | 11.2 µM | 
11 | O=C(O)C1Cc2c(cccc2CP(=O)(O)O)CN1 (centres unmarked) [Ex. 17, 3-carboxy-5-(phosphonomethyl)-1,2,3,4-tetrahydroisoquinoline] | 18 µM | 
12 | Cc1ccc2c(c1P(=O)(O)O)CC(C(=O)O)NC2 (centres unmarked) [Ex. 16] | 5.9 µM | 
13 | O=C(O)C1CC2=C(CCCC2P(=O)(O)O)CN1 (centres unmarked) [Ex. 4, 3-carboxy-5-phosphono-1,2,3,4,5,6,7,8-octahydroisoquinoline] | 1.2 µM | 
